Measurements: patent US7750047B2, “Modulators (inhibitors/activators) of histone acetyltransferases” (Jawaharlal Nehru Centre for Advanced Scientific Research, priority 2002, dated 2010)
Like-named read-outs stand apart in the source and are kept apart here.

Tests used:
p300 [1] = biological target: T1, p300 (Homo sapiens, UniProt Q09472); test: HAT assay (filter binding) with p300 and core histones; assay type: biochemical; parameters: Full-length p300 was also purified from the recombinant baculovirus infected Sf21 cells as a His6-tagged protein; His6; made in house; host or cells: Sf21 insect cells (recombinant baculovirus)
Excerpt: (§1) B: Biochemical Methods: Purification of Human Core Histones and Recombinant Proteins-Human core histones were purified from HeLa nuclear pellet as described previously (12). The FLAG epitope tagged Human Topoisomerase I, histone deacetylase 1 (HDAC1) and PCAF, were purified from the recombinant baculovirus infected insect cell line, Si 217 by the immunoaffinity purification using M2-agarose (SIGMA)(13). Full-length p300 was also purified from the recombinant baculovirus infected Sf21 cells as a His6-tagged protein through the Ni-NTA affinity column (Qiagen) as described previously (12). The His6-tagged nucleosome assembly protein 1 (NAP1), used for the in vitro chromatin assembly was purified from E. coli cells as previously reported (12) and the FLAG-tagged chimeric activator Ga14-VP16, expressed in E. coli and purified by immunoaffinity purification with M2 agarose. Human positive transcriptional coactivator, PC4, was expressed in E. coli and purified as described earlier (14).
(§2) HAT assays were performed as described elsewhere (12). Briefly, indicated amounts of proteins/peptide were incubated in HAT-assay buffer containing 50 Mm Tris-HCl, Ph 8.0, 10% (v/v) glycerol, 1 Mm dithiothreitol, 1 Mm phenylmethyl sulfonyl fluoride, 0.1 Mm EDTA, Ph 8.0, 10 Mm sodium butyrate at 30° C. for 10 min in presence or absence of compound followed by the addition of 1 pi of 6.2 Ci/mmol [^3H]-acetyl Coenzyme A (acetyl-CoA) and were further incubated for another 10 min. The final reaction volume was 30 ul. The reaction mixture was then blotted onto P-81 (Whatman) filter papers and radioactive counts were recorded on a Wallac 1409 liquid scintillation counter.
In order to characterize the inhibition kinetics of anacardic acid, filter-binding assays were done using constant amount of HeLa core histones in the presence or absence of AA with increasing concentrations of [3H]-acetyl CoA (see FIG. 3E). To visualize the radiolabeled acetylated histones, the reaction mixtures were resolved on 15% SDS-PAGE and processed for fluorography as described elsewhere (14).
Target sequence in this assay (Q09472 whole entry): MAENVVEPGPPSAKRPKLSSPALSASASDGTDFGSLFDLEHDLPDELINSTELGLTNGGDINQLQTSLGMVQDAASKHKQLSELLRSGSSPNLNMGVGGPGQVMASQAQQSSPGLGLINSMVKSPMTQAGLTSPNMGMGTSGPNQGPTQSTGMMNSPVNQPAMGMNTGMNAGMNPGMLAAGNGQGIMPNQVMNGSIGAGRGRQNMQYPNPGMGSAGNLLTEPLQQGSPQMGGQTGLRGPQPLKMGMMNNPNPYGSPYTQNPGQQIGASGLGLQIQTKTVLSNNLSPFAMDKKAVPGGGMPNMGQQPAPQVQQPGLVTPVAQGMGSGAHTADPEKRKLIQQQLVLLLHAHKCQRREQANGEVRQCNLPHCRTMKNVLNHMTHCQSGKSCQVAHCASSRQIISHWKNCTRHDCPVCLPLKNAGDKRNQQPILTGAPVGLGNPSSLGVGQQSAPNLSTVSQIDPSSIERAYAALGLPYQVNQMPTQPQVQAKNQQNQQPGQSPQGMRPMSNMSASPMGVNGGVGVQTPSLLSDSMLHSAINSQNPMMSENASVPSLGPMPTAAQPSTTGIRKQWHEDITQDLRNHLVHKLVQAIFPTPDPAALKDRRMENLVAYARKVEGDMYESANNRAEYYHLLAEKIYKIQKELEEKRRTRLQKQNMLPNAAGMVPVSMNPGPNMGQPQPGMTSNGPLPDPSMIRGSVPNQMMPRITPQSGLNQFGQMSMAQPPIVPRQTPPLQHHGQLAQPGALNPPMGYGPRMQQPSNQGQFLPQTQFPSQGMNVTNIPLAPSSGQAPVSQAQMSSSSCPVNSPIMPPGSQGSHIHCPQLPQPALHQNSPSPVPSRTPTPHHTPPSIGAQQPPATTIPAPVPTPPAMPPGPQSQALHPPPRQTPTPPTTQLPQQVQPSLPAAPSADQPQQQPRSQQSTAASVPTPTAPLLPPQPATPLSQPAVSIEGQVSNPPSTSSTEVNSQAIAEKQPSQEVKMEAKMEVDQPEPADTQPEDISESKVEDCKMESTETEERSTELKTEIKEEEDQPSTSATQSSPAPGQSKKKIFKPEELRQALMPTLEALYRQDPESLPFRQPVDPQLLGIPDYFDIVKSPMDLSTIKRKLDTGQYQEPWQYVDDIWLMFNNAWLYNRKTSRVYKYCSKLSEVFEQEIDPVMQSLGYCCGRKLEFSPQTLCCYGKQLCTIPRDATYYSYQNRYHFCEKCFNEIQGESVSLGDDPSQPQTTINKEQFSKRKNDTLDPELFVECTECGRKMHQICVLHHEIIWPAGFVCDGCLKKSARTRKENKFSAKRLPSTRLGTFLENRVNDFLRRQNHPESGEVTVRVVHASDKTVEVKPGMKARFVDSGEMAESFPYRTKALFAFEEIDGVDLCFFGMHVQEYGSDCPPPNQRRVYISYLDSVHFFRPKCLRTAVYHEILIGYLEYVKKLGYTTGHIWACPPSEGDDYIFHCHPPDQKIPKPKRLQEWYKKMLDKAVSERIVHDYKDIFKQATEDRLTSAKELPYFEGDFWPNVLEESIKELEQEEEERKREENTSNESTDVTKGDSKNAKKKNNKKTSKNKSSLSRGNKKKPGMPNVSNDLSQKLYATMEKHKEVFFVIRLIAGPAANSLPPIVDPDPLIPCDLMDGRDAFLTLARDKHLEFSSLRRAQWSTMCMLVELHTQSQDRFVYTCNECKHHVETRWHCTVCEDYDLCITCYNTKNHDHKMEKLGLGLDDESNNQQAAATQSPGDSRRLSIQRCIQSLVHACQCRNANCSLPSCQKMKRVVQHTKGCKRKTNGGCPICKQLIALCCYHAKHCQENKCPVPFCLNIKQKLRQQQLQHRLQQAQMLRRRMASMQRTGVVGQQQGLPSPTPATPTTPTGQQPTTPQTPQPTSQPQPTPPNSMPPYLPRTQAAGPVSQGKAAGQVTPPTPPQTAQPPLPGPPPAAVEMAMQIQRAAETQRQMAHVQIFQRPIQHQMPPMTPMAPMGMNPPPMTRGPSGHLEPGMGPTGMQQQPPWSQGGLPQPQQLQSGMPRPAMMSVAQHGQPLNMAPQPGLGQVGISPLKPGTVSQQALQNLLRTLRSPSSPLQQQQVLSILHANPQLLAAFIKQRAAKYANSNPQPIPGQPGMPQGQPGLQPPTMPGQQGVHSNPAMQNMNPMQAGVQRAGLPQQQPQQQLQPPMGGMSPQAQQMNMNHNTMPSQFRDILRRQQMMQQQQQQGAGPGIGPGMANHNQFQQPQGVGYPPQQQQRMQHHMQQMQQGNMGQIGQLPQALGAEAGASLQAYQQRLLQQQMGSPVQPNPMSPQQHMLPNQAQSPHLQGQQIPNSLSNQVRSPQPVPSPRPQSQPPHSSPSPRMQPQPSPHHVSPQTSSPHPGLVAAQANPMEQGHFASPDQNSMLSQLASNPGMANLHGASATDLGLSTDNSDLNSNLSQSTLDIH

p300 [2] = biological target: T1, p300; test: In vitro p300 HAT-dependent transcription assay from chromatin template; assay type: biochemical; parameters: Full-length p300 was also purified from the recombinant baculovirus infected Sf21 cells as a His6-tagged protein; His6; made in house; host or cells: Sf21 insect cells (recombinant baculovirus)
Procedure: In Vitro Chromatin assembly: Chromatin template for in vitro transcription experiments was assembled and characterized as described earlier (8).
(§3) In Vitro Transcription Assay: Transcription assays were essentially carried out as described elsewhere (8), with minor modifications. The scheme of transcription is enumerated in FIG. 6A. Briefly, 30 ng of DNA/equivalent amount of chromatin template was incubated with 30 ng of activator (Gal4-VP16) in a buffer containing 4 mM HEPES (pH 7.8), 20 mM KCl, 2 mM DTT, 0.2 mM PMSF, 10 mM sodium butyrate, 0.1 mg/ml BSA, 2% glycerol (8). The activating compounds were added to the acetylation reaction along with p300 and acetyl-CoA, and incubated for 30 min. at 30° C. This was followed by addition of the p300 specific inhibitor Lysyl CoA (5 nom) to quench the acetylation reaction.
(§4) For inhibitors, the HAT p300 was pre-incubated with indicated amounts of inhibitor on ice for 20 min., following which it was added to the acetylation reaction in the transcription assay. […] The ^32P-radiolabeled transcript was extracted with phenol-chloroform, ethanol precipitated, dried pellet dissolved in loading dye (8 M Urea, 0.005% bromophenol blue and xylene cyanol) and analyzed on 5% urea-polyacrylamide gel. […] Quantification of transcription was done by Fuji BAS system. Quantitation of DNA and chromatin transcription data represents three independent experiments.
Target sequence in this assay (Q09472 whole entry): as above

[3] = tested on: basal transcription machinery; test: In vitro transcription assay from histone-free DNA template; assay type: biochemical, human; conditions: compared to DMSO control
Procedure: as §3
as §4, with “assay. For the DNA transcription assays and chromatin transcription inhibition assays, the Lysyl CoA step was omitted.” for “assay.”

PCAF = biological target: T2, PCAF (Homo sapiens, UniProt Q92831); test: HAT assay (filter binding) with PCAF and core histones; assay type: biochemical
T2 construct: FLAG; made in house; host or cells: insect cell line (printed 'Si 217', probably Sf21), recombinant baculovirus
T2 sequence (Q92831 whole entry): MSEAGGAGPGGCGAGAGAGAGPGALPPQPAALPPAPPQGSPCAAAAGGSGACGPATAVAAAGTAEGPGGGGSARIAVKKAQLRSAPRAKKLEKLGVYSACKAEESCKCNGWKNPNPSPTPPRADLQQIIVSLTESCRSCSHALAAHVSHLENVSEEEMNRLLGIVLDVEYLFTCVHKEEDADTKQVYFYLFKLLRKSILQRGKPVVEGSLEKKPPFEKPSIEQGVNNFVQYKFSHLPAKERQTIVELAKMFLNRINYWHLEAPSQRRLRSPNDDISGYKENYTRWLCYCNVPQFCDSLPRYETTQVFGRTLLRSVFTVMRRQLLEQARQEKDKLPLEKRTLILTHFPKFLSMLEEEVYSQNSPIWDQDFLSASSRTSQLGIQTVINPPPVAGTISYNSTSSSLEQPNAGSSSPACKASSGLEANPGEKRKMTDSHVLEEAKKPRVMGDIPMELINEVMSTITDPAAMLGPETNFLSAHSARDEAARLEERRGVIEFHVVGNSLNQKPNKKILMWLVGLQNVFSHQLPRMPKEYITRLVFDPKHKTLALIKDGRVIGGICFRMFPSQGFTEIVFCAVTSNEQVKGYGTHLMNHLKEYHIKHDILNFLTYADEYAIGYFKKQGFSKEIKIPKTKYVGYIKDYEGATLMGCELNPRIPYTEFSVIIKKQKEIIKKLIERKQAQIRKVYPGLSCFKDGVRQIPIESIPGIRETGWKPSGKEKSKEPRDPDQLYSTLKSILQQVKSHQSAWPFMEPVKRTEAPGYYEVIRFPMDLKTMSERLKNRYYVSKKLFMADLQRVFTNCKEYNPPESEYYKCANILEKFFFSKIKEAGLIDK
Excerpt: as §1
HAT assays were performed as described elsewhere (12). […] The reaction mixture was then blotted onto P-81 (Whatman) filter papers and radioactive counts were recorded on a Wallac 1409 liquid scintillation counter.

[4] = tested on: histone acetyltransferases; test: HAT inhibition test of salicylic acid and benzoic acid; assay type: biochemical
Procedure: as §2

p300 [5] = biological target: T1, p300; conditions: cited from earlier work
Target sequence in this assay (Q09472 whole entry, species assumed): as the sequence (Q09472 whole entry) above

Compound: CCCCCCCCCCCCCCCc1cccc(OCC)c1C(=O)Nc1ccc(Cl)c(C(F)(F)F)c1 [CTPB, N-(4-Chloro-3-trifluoromethyl-phenyl)-2-ethoxy-6-pentadecyl-benzamide]
- increase in histone acetylation levels (p300 [1]): ~5 fold
- enhancement of p300 HAT activity (p300 [1]; human core histones): specifically enhances
- enhancement of levels of HAT-dependent transcription from chromatin template over DMSO control (p300 [2]; added with p300 and acetyl CoA, 30 min acetylation): 1.6 fold

Compound: CCCCCCCCCCCCCCCc1cccc(O)c1C(=O)O [anacardic acid, 2-hydroxy-6-pentadecylbenzoic acid]
- effect on transcript levels from DNA template [3]: but not DNA transcription
- inhibitory activity towards p300 HAT activity (p300 [1]): inhibits
- type of p300-HAT inhibition (double reciprocal plot 1/c.p.m. vs. 1/[Acetyl CoA]) (p300 [1]; increasing [3H]-acetyl CoA, constant amount of core histones): non-competitive
- inhibitory activity towards p300 HAT activity (p300 [1]; listed as Anacardic acid): equally potent inhibitory activity
- inhibition of p300 HAT activity dependent transcription from the chromatin template (p300 [2]): inhibits
- inhibition of HAT activity of PCAF (PCAF): inhibits

Compound: O=C(O)c1ccccc1O [salicylic acid]
- inhibitory activity against histone acetyltransferases [4]: Neither salicylic acid nor benzoic acid shown any inhibitory activity

Compound: O=C(O)c1ccccc1 [benzoic acid]
- inhibitory activity against histone acetyltransferases [4]: Neither salicylic acid nor benzoic acid shown any inhibitory activity

Compound: Lys-CoA
- inhibition of HAT activity of p300 (p300 [5]): specifically inhibit
